Measured values taken from patent US20250327027A1, “METHODS TO GENERATE ENHANCED TUMOR INFILTRATING LYMPHOCYTES THROUGH MICROFLUIDIC DELIVERY” (STEMCELL TECHNOLOGIES CANADA INC., priority 2021, published 2025).
“And” between values parts separate entries of the source, which are not always exact repeats. Equal values may be shown once.

How the values were obtained:
Format in all cases: cell-based
[1] = system: melanoma TILs; assay: Comparison of microfluidic chips and anti-CD3 antibody clones used in REP (mbIL-2/mbIL-12 expression); conditions: anti-CD3 clone used in REP culture; 4 hours post squeeze
Source text: As described herein, TILs are often expanded to increase their number prior to their use in adoptive transfer studies Such expansion phase can involve the use of anti-CD3 antibodies to activate and induce the TILs to proliferate. Whether the specific anti-CD3 antibody clone used in the expansion phase was next assessed. Briefly, melanoma TILs were collected from REP cultures that contained different anti-CD3 clones (OKT3, SK7, HIT3a, or UCHT1). Following cell harvest, the post-REP TILs were resuspended at 40 million live cells/mL cell density as 2× concentration. The cells were mixed with equal volume of 2× mRNA solution and squeezed through various chip types (10-3.5-70 SF, 10-4-70 ST) and pressure (30 psi) at room temperature. Final concentration of cells was 20 million live cells/mL. Final mRNA concentration for squeeze was […] for each of mbIL-2 and mbIL-12 mRNA. Following the squeeze processing, cells were quenched in CTS OpTmizer media and spun immediately. […] The squeezed TILs were assessed at 4 hours post squeeze by flow cytometry for viability, cell composition, and surface levels of mbIL-2 and mbIL-12.

[2] = system: lung TILs; assay: Comparison of anti-CD3 antibody concentration in pre-REP (mbIL-2/mbIL-12 and CD62L expression); conditions: 6 or 30 ng/mL anti-CD3 antibody (OKT3 clone) during pre-REP
Method: As described herein, in some aspects, prior to modifying the TILs, the TILs can undergo a first expansion phase (pre-REP) and a second expansion phase (REP). Whether the concentration of the anti-CD3 antibody during the first expansion phase has an effect in producing the modified TILs described herein, the following methods were used. Briefly, lung TILs underwent a pre-REP process in the absence or presence of 6 or 30 ng/mL anti-CD3 antibody (OKT3 clone). Then, the TILs were collected and further expanded in a REP process. Afterwards, the cells were resuspended at 40 million live cells/mL cell density as 2× concentration. The cells were mixed with equal volume of 2× mRNA solution and squeezed through 10-4-70 ST at 60 psi at room temperature. Final concentration of cells was 20 million live cells/mL. Final mRNA concentration for squeeze was […] for each of mbIL-2 and mbIL-12 mRNA. Following squeezing, cells were quenched in CTS OpTmizer media and spun immediately. […] The squeezed TILs were assessed at 4, 24, and 48 hours post squeeze by flow cytometry for viability, cell composition, surface levels of mbIL-2 and mbIL-12.

[3] = system: TILs; assay: Effect of anti-CD3 antibody on TIL expansion from melanoma tumor fragments (NucleoCounter NC-200); conditions: for Cell Count on Day 13 / Viability on Day 13: 6,000 IU/mL recombinant IL-2, replicate wells
Method: Further to the data provided in Example 22, the effect of anti-CD3 antibody on TIL expansion was further assessed. Briefly, freshly resected melanoma tumor was rinsed in 1× Hank's Balanced Salt Solution (HBSS) with 10 μg/mL gentamicin and dissected into 8-27 mm^3 fragments using a forceps and scalpel. […] Five tumor fragments, 8-27 mm^3 in size, per well were added to the G-Rex6M plate. The G-Rex6M plate was then placed in a 37° C., 5% CO2 incubator for 4 days.
On day 4, the G-Rex6M plate was removed from the incubator. […] The G-Rex6M plate was returned to the 37° C., 5% CO2 incubator for an additional 9 days.
On day 13, the TILs were harvested and transferred to a 50 mL conical tube. The number and viability of the TILs was assessed using a NucleoCounter NC-200.

Substance: OKT3: anti-CD3 antibody clone used in TIL expansion
- mbIL-2 and mbIL-12 expression (percentage of total cells and MFI) [1]: higher expression
- impact on translation kinetics of mbIL-2 and mbIL-12 expression [2]: minimal impact
- Cell Count on Day 13 ([3]; 6 ng/mL OKT3): 2.35 × 10^8 and 2.43 × 10^8
- Viability on Day 13 ([3]; 6 ng/mL OKT3): 90.7% and 91.1%
- Cell Count on Day 13 ([3]; 20 ng/mL OKT3): 2.00 × 10^8 and 2.17 × 10^8
- Viability on Day 13 ([3]; 20 ng/mL OKT3): 90.5% and 91.6%
- TIL expansion ([3]; 6 or 30 ng/mL of OKT3, day 13, compared to culture without OKT3): greater TIL expansion
